Source: patent US8871680B2, “Herbicidal compositions comprising 4-amino-3-chloro-5-fluoro-6-(4-chloro-2-fluoro-3-methoxyphenyl) pyridine-2-carboxylic acid or a derivative thereof and a di-methoxy-pyrimidine and derivatives thereof” (Dow AgroSciences LLC, priority 2012, dated 2014)

Legend:
SCPMA = experiment: In-water applied weed control, transplanted paddy rice (greenhouse); type: in vivo, Bolboschoenus maritimus (L.) Palla
Protocol: (§1) Weed seeds or nutlets of the desired test plant species were planted in puddled soil (mud) prepared by mixing a shredded, non-sterilized mineral soil (50.5 percent silt, 25.5 percent clay, and 24 percent sand, with a pH of about 7.6 and an organic matter content of about 2.9 percent) and water at a 1:1 volumetric ratio. The prepared mud was dispensed in 365 mL aliquots into 16-ounce (oz.) non-perforated plastic pots with a surface area of 86.59 square centimeters (cm^2) leaving a headspace of 3 centimeters (cm) in each pot. Mud was allowed to dry overnight prior to planting or transplanting. Rice seeds were planted in Sun Gro MetroMix® 306 planting mixture, which typically has a pH of 6.0 to 6.8 and an organic matter content of about 30 percent, in plastic plug trays. Seedlings at the second or third leaf stage of growth were transplanted into 860 mL of mud contained in 32-oz. non-perforated plastic pots with a surface area of 86.59 cm^2 4 days prior to herbicide application. The paddy was created by filling the headspace of the pots with 2.5 to 3 cm of water. When required to ensure good germination and healthy plants, a fungicide treatment and/or other chemical or physical treatment was applied. The plants were grown for 4-22 days in a greenhouse with an approximate 14 hr photoperiod which was maintained at about 29′C during the day and 26° C. during the night. Nutrients were added as Osmocote® (19:6:12, N:P:K+minor nutrients) at 2 g per 16-oz. pot and 4 g per 32-oz. pot. Water was added on a regular basis to maintain the paddy flood, and supplemental lighting was provided with overhead metal halide 1000-Watt lamps as necessary. The plants were employed for testing when they reached the first through fourth true leaf stage.
(§2) Treatments consisted of the acid or esters of 4-amino-3-chloro-5-fluoro-6-(4-chloro-2-fluoro-3-methoxy-phenyl)pyridine-2-carboxylic acid (compound A) each formulated as an SC and various herbicidal components alone and in combination. Forms of compound A were applied on an acid equivalent basis.
(§3) Other herbicidal components were applied on an active ingredient basis and included the dimethoxy-pyrimidine acid acetolactate synthase (ALS)-inhibiting herbicides bispyribac-sodium formulated as Regiment® 80 WP, pyriminobac-methyl formulated as Hie Clean®, and pyriftalid (technical grade material).
(§4) Treatment requirements for each compound or herbicidal component were calculated based upon the rates being tested, the concentration of active ingredient or acid equivalent in the formulation, an application volume of 2 mL per component per pot, and an application area of 86.59 cm^2 per pot.
(§5) For formulated compounds, a measured amount was placed in an individual 100 or 200 mL glass vial and was dissolved in a volume of 1.25% (v/v) Agri-Dex® crop oil concentrate to obtain application solutions.
(§6) For technical grade compounds, a weighed amount was placed in an individual 100 to 200 mL glass vial and was dissolved in a volume of acetone to obtain concentrated stock solutions. […] The concentrated stock solutions obtained were diluted with an equivalent volume of an aqueous mixture containing 2.5% (v/v) crop oil concentrate so that the final application solutions contained 1.25% (v/v) crop oil concentrate.
(§7) Applications were made by injecting with a pipetter appropriate amounts of the application solutions, individually and sequentially, into the aqueous layer of the paddy.
(§8) Control plants were treated in the same manner with the solvent blank. Applications were made so that all treated plant material received the same concentrations of acetone and crop oil concentrate.
(§9) The treated plants and control plants were placed in a greenhouse as described above and water was added as needed to maintain a paddy flood. […]

ECHOR = experiment: as above; type: in vivo, Echinochloa oryzoides (Ard.) Fritsch
Protocol: as §1, §2, §3, §4, §5, §6, §7
(§10) Control plants were treated in the same manner with the solvent blank. […]

FIMMI = experiment: as above; type: in vivo, Fimbristylis miliacea (L.) Vahl
Protocol: as §1, §2, §3, §4, §5, §6, §7, §8, §9

IPOHE = experiment: Postemergence foliar-applied weed control, direct seeded rice (greenhouse); type: in vivo, Ipomoea hederacea Jacq.
Excerpt: (§11) Seeds or nutlets of the desired test plant species were planted in a soil matrix prepared by mixing a loam or sandy loam soil (e.g., 28.6 percent silt, 18.8 percent clay, and 52.6 percent sand, with a pH of about 5.8 and an organic matter content of about 1.8 percent) and calcareous grit in an 80 to 20 ratio. The soil matrix was contained in plastic pots with a volume of 1 quart and a surface area of 83.6 square centimeters (cm^2). When required to ensure good germination and healthy plants, a fungicide treatment and/or other chemical or physical treatment was applied. The plants were grown for 8-22 days in a greenhouse with an approximate 14 hr photoperiod which was maintained at about 29° C. during the day and 26° C. during the night. Nutrients (Peters Excel® 15-5-15 5-Ca 2-Mg and iron chelate) were applied in the irrigation solution as needed and water was added on a regular basis. Supplemental lighting was provided with overhead metal halide 1000-Watt lamps as necessary. The plants were employed for testing when they reached the first through fourth true leaf stage.
as §2, with “(Compound A),” for “(compound A)”, “SC (suspension concentrate),” for “SC”
as §3, with “80WP, pyribenzoxim (technical grade material),” for “80 WP,”, “Hie-Clean® 1.2% GR dissolved in water,” for “Hie Clean®,”
(§12) Treatment requirements were calculated based upon the rates being tested, the concentration of active ingredient or acid equivalent in the formulation, and a 12 mL application volume at a rate of 187 L/ha.
(§13) For treatments comprised of formulated compounds, measured amounts of compounds were placed individually in 25 mL glass vials and diluted in a volume of 1.25% (v/v) Agri-Dex® crop oil concentrated to obtain 12× stock solutions. […] Application solutions were prepared by adding an appropriate amount of each stock solution (e.g., 1 mL) and diluted to the appropriate final concentrations with the addition of 10 mL of an aqueous mixture of 1.25% (v/v) crop oil concentrate so that the final spray solutions contained 1.25+/−0.005% (v/v) crop oil concentrate.
(§14) For treatments comprised of technical compounds, weighed amounts can be placed individually in 25 mL glass vials and dissolved in a volume of 97:3 v/v acetone/DMSO to obtain 12× stock solutions. […] Application solutions can be prepared by adding an appropriate amount of each stock solution (e.g., 1 mL) and diluted to the appropriate final concentrations with the addition of 10 mL of an aqueous mixture of 1.5% (v/v) crop oil concentrate so that the final spray solutions contain 1.25% (v/v) crop oil concentrate. When technical materials are used, the concentrated stock solutions can be added to the spray solutions so that the final acetone and DMSO concentrations of the application solutions are 16.2% and 0.5%, respectively.
(§15) For treatments comprised of formulated and technical compounds, weighed amounts of the technical materials were placed individually in 25 mL glass vials and dissolved in a volume of 97:3 v/v acetone/DMSO to obtain 12× stock solutions, and measured amounts of the formulated compounds were placed individually in 25 mL glass vials and diluted in a volume of 1.5% (v/v) crop oil concentrate or water to obtain 12× stock solutions. […]

CYPRO = experiment: In-water applied weed control, transplanted paddy rice (greenhouse); type: in vivo, Cyperus rotundus L.
Protocol: as §1, §2, §3, §4, §5, §6, §7, §8, §9

DIGSA = experiment: Postemergence foliar-applied weed control, direct seeded rice (greenhouse); type: in vivo, Digitaria sanguinalis (L.) Scop.
Excerpt: as §11
as §2, with “(Compound A),” for “(compound A)”, “SC (suspension concentrate),” for “SC”
as §3, with “80WP, pyribenzoxim (technical grade material),” for “80 WP,”, “Hie-Clean® 1.2% GR dissolved in water,” for “Hie Clean®,”
as §12, §13
as §14, with “When technical materials are used, the concentrated stock solutions can be added to the spray solutions so that the final acetone and DMSO concentrations of the application solutions are 16.2% and 0.5%, respectively.” left out
as §15

ECHCO = experiment: In-water applied weed control, transplanted paddy rice (greenhouse); type: in vivo, Echinochloa colona (L.) Link; details: 22.5 gai/ha
Protocol: as §1, with “Water was added on a regular basis to maintain the paddy flood, and supplemental lighting was provided with overhead metal halide 1000-Watt lamps as necessary. The plants were employed for testing when they reached the first through fourth true leaf stage.” left out
as §4
For formulated compounds, a measured amount was placed in an individual 100 or 200 mL glass vial and was dissolved in a volume of 1.25% (v/v) Agri-Dex® crop oil concentrate to obtain application solutions. […]

LEFCH [1] = experiment: as above; type: in vivo, Leptochloa chinensis (L.) Nees
Protocol: as §1, §2, §3, §4, §5, §6, §7, §10

LEFCH [2] = experiment: Postemergence foliar-applied weed control, direct seeded rice (greenhouse); type: in vivo, Leptochloa chinensis (L.) Nees
Excerpt: as §11
as §2, with “(Compound A),” for “(compound A)”, “SC (suspension concentrate),” for “SC”
as §3, with “80WP, pyribenzoxim (technical grade material),” for “80 WP,”, “Hie-Clean® 1.2% GR dissolved in water,” for “Hie Clean®,”
as §12, §13, §14, §15

ECHCG = experiment: In-water applied weed control, transplanted paddy rice (greenhouse); type: in vivo, Echinochloa crusgalli (L.) Beauv.
Protocol: as §1, §2, §3, §4, §5, §6, §7, §8, §9

CCCCOC(=O)c1nc(-c2ccc(Cl)c(OC)c2F)c(F)c(N)c1Cl [Compound A n-Butyl Ester]
Visual Weed Control (%)-20 DAA SCPMA Obs (SCPMA; 70 gae/ha): 0%
Visual Weed Control (%)-20 DAA ECHOR Obs (ECHOR; 35 gae/ha): 35%
Visual Weed Control (%)-20 DAA ECHOR Obs (ECHOR; 70 gae/ha): 40%

CO/N=C(\C)c1cccc(Oc2nc(OC)cc(OC)n2)c1C(=O)OC [Pyriminobac-methyl, methyl 2-[(4,6-dimethoxy-2-pyrimidinyl)oxy]-6-[1-(methoxyimino)ethyl]benzoate, reference compound]
Visual Weed Control (%)-21 DAA SCPMA Obs (SCPMA; 22.5 gai/ha, Table 10): 0%
Visual Weed Control (%)-21 DAA SCPMA Obs (SCPMA; 22.5 gai/ha, Table 11): 0%
Visual Weed Control (%)-21 DAA SCPMA Obs (SCPMA; 45 gai/ha, Table 10): 0%
Visual Weed Control (%)-21 DAA SCPMA Obs (SCPMA; 45 gai/ha, Table 11): 0%
Visual Weed Control (%)-20 DAA SCPMA Obs (SCPMA; 90 gai/ha, Table 10): 43%
Visual Weed Control (%)-20 DAA SCPMA Obs (SCPMA; 90 gai/ha, Table 11): 43%
Visual Weed Control (%)-21 DAA FIMMI Obs (FIMMI; 22.5 gai/ha): 0%
Visual Weed Control (%)-21 DAA FIMMI Obs (FIMMI; 45 gai/ha): 0%
Visual Weed Control (%)-24 DAA IPOHE Obs (IPOHE; 11.25 gai/ha): 10%
Visual Weed Control (%)-24 DAA IPOHE Obs (IPOHE; 11.25 gai/ha, Table 4): 10%
Visual Weed Control (%)-24 DAA IPOHE Obs (IPOHE; 22.5 gai/ha): 10%
Visual Weed Control (%)-24 DAA IPOHE Obs (IPOHE; 22.5 gai/ha, Table 4): 10%
Visual Weed Control (%)-21 DAA IPOHE Obs (IPOHE; 90 gai/ha): 20%
Visual Weed Control (%)-24 DAA IPOHE Obs (IPOHE; 90 gai/ha, second part of Table 3): 20%
Visual Weed Control (%)-21 DAA CYPRO Obs (CYPRO; 22.5 gai/ha): 0%
Visual Weed Control (%)-24 DAA DIGSA Obs (DIGSA; 11.25 gai/ha): 0%
Visual Weed Control (%)-24 DAA DIGSA Obs (DIGSA; 22.5 gai/ha): 0%
Visual Weed Control (%)-21 DAA ECHCO Obs (ECHCO): 40%
Visual Weed Control (%)-21 DAA LEFCH Obs (LEFCH [1]; 45 gai/ha): 80%
Visual Weed Control (%)-24 DAA LEFCH Obs (LEFCH [2]; 11.25 gai/ha): 0%
Visual Weed Control (%)-24 DAA LEFCH Obs (LEFCH [2]; 22.5 gai/ha): 0%

COc1cc(OC)nc(Oc2cccc(Oc3nc(OC)cc(OC)n3)c2C(=O)[O-])n1.[Na+] [Bispyribac-Sodium, sodium 2,6-bis[(4,6-dimethoxy-2-pyrimidinyl)oxy]benzoate, reference compound]
Visual Weed Control (%)-20 DAA SCPMA Obs (SCPMA; 40 gai/ha, Table 7): 38%
Visual Weed Control (%)-20 DAA SCPMA Obs (SCPMA; 40 gai/ha, Table 8): 38%
Visual Weed Control (%)-20 DAA SCPMA Obs (SCPMA; 40 gai/ha, Table 9): 38%
Visual Weed Control (%)-20 DAA ECHOR Obs (ECHOR; 40 gai/ha, Table 7): 30%
Visual Weed Control (%)-20 DAA ECHOR Obs (ECHOR; 40 gai/ha, Table 9): 30%
Visual Weed Control (%)-20 DAA CYPRO Obs (CYPRO; 10 gai/ha): 0%
Visual Weed Control (%)-20 DAA CYPRO Obs (CYPRO; 20 gai/ha): 0%
Visual Weed Control (%) - 20 DAA ECHCG Obs (ECHCG; 10 gai/ha): 20%
Visual Weed Control (%) - 20 DAA ECHCG Obs (ECHCG; 20 gai/ha): 35%
Visual Weed Control (%) - 20 DAA ECHCG Obs (ECHCG; 40 gai/ha): 30%
Visual Weed Control (%)-20 DAA LEFCH Obs (LEFCH [1]; 40 gai/ha): 28%
Visual Weed Control (%)-20 DAA LEFCH Obs (LEFCH [2]; 7 gai/ha): 0%
Visual Weed Control (%)-20 DAA LEFCH Obs (LEFCH [2]; 14 gai/ha): 0%
